# Assay results from ChEMBL document CHEMBL3804823, “Inhibitors of secreted phospholipase A2 suppress the release of PGE2 in renal mesangial cells” (Bioorg Med Chem, 2016).
# Calls of active or inactive are those of the source. The calls are words filed in the database; no cut-off is given here.
# Tests used:
# Assay type in all cases: cell-based
# Rattus norvegicus [1] = species: Rattus norvegicus; test: Inhibition of secretory phospholipase A2 in rat renal mesangial cells assessed as suppression of IL-1beta/forskolin stimulated PGE2 formation preincubated for 20 mins prior to IL-1beta/forskolin challenge at 1 to 10 uM measured after 24 hrs by PGE2-specific ELISA
# Rattus norvegicus [2] = species: Rattus norvegicus; test: Inhibition of secretory phospholipase A2 in rat renal mesangial cells assessed as suppression of IL-1beta/forskolin stimulated PGE2 formation preincubated for 20 mins prior to IL-1beta/forskolin challenge at 1 uM measured after 24 hrs by PGE2-specific ELISA
# Rattus norvegicus [3] = species: Rattus norvegicus; test: Inhibition of secretory phospholipase A2 in rat renal mesangial cells assessed as suppression of IL-1beta/forskolin stimulated PGE2 formation preincubated for 20 mins prior to IL-1beta/forskolin challenge at 3 and 10 uM measured after 24 hrs by PGE2-specific ELISA
# Rattus norvegicus [4] = species: Rattus norvegicus; test: Inhibition of secretory phospholipase A2 in rat renal mesangial cells assessed as suppression of IL-1beta/forskolin stimulated PGE2 formation preincubated for 20 mins prior to IL-1beta/forskolin challenge at 10 uM measured after 24 hrs by PGE2-specific ELISA
smiles,measurement,setting,value
O=C(O)CC[C@@H](Cc1ccc(OCc2ccccc2)cc1)NC(=O)CCCCCCc1ccccc1,inhibition,Rattus norvegicus [1],Active
CCCC[C@H](CCC(=O)O)NC(=O)CCCCC(=O)Nc1ccccc1,inhibition,Rattus norvegicus [2],inactive
same,inhibition,Rattus norvegicus [3],Active
CCCC[C@H](CCC(=O)O)NC(=O)CCCCNC(=O)c1ccccc1,inhibition,Rattus norvegicus [2],inactive
same,inhibition,Rattus norvegicus [3],Active
CC(C)[C@H](NC(=O)C(=O)c1ccc2ccccc2c1)C(=O)O,inhibition,Rattus norvegicus [2],inactive
same,inhibition,Rattus norvegicus [3],Active
CCCCCCCCCCCCCCC(=O)C(=O)N[C@@H](CC(C)C)C(=O)O,inhibition,Rattus norvegicus [1],Active
CCCC[C@H](CCC(=O)O)NC(=O)CCCCCCc1ccccc1,inhibition,Rattus norvegicus [1],Active
CC(C)[C@H](NC(=O)C(=O)CCCCc1ccc2ccccc2c1)C(=O)O,inhibition,Rattus norvegicus [1],Active
CCCC[C@H](CCC(=O)O)NC(=O)CCCCCOc1ccccc1,inhibition,Rattus norvegicus [2],inactive
same,inhibition,Rattus norvegicus [3],Active
CCCC[C@H](CCC(=O)O)NC(=O)CCCCNC(=O)c1ccc(OC)cc1,inhibition,Rattus norvegicus [1],Active
CCCCCCCCCCCCCCCCC(=O)C(=O)N[C@H](C(=O)O)C(C)C,inhibition,Rattus norvegicus [1],Active
CCCCCCCCCCCCCCC(=O)C(=O)NCCCC(=O)OCC,inhibition,Rattus norvegicus [4],inactive
CCCCCCCCCCCCCCC(=O)C(=O)N[C@@H](CCCC)CCCC(=O)O,inhibition,Rattus norvegicus [4],inactive
CC(C)[C@H](NC(=O)C(=O)CCCCc1ccccc1)C(=O)O,inhibition,Rattus norvegicus [1],Active
CCCC[C@H](CCC(=O)O)NC(=O)CCCC(=O)NCc1ccccc1,inhibition,Rattus norvegicus [1],Active
O=C(CCCCc1ccccc1)C(F)(F)C(F)(F)F,inhibition,Rattus norvegicus [4],inactive
